In patent US20250145594A1, “MODULATORS OF THE INTEGRATED STRESS PATHWAY” (Calico Life Sciences LLC, priority 2020, published 2025):

Test system: ATF4 luciferase reporter in HEK293T cells
Test: ATF4-Luc assay (in vitro model of VWMD)
Type: cell-based, human
Conditions: Homo sapiens, HEK-293T, 7 h, HEK293T cells carrying the ATF4 luciferase reporter, 1 μg/mL tunicamycin, One Glo luminescence
How it was run: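 Stable HEK293T line expressing firefly luciferase behind the human ATF4 5′-UTR, treated with 1 μg/mL tunicamycin plus compound for 7 hours. Luminescence read with One Glo; EC50 determined.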

SMILES: O=C(COc1ccc(Cl)c(F)c1)NC12CC(n3cc(C(=O)N4CC[C@H](OC(F)(F)F)C4)nn3)(C1)C2 [Compound 599, 2-(4-chloro-3-fluorophenoxy)-N-(3-{4-[(3S)-3-(trifluoromethoxy)pyrrolidine-1-carbonyl]-1H-1,2,3-triazol-1-yl}bicyclo[1.1.1]pentan-1-yl)acetamide]
- EC50: < 10 nM

SMILES: CC1(C(F)(F)F)CCCN1C(=O)c1cnn(C23CC(NC(=O)[C@H]4C[C@@H](O)c5cc(Cl)ccc5O4)(C2)C3)c1 (stereo partly drawn) [Compound 328, (2R,4R)-6-chloro-4-hydroxy-N-(3-{4-[2-methyl-2-(trifluoromethyl)pyrrolidine-1-carbonyl]-1H-pyrazol-1-yl}bicyclo[1.1.1]pentan-1-yl)-3,4-dihydro-2H-1-benzopyran-2-carboxamide]
- EC50: 50 to 250 nM

SMILES: O=C(COc1ccc(Cl)c(F)c1)NC12CC(c3ccc(C(=O)N4CC(OCC(F)(F)F)C4)nc3)(C1)C2 [Compound 601, 2-(4-chloro-3-fluorophenoxy)-N-(3-{6-[3-(2,2,2-trifluoroethoxy)azetidine-1-carbonyl]pyridin-3-yl}bicyclo[1.1.1]pentan-1-yl)acetamide]
- EC50: 10 to 50 nM

SMILES: O=C(COc1ccc(C(F)(F)F)c(F)c1)N[C@H]1CC[C@H](n2cc(C(=O)N3CC[C@H](OC(F)(F)F)C3)cn2)CC1 [Compound 614, 2-[3-fluoro-4-(trifluoromethyl)phenoxy]-N-[(1S,4r)-4-{4-[(3S)-3-(trifluoromethoxy)pyrrolidine-1-carbonyl]-1H-pyrazol-1-yl}cyclohexyl]acetamide]
- EC50: < 10 nM

SMILES: CCOC(=O)OC[C@@H]1C[C@H]1c1cn(C23CC(NC(=O)[C@H]4C[C@@H](O)c5cc(Cl)ccc5O4)(C2)C3)nn1 (mixture of isomers) [Compound 543, ((1RS,2RS)-2-[1-(3-{[(2R,4R)-6-chloro-4-hydroxy-3,4-dihydro-2H-1-benzopyran-2-carbonyl]amino}bicyclo[1.1.1]pentan-1-yl)-1H-1,2,3-triazol-4-yl]cyclopropyl)methyl ethyl carbonate]
- EC50: < 10 nM

SMILES: O=C(NC12CC(n3cc(-c4ccc(C(F)(F)F)cn4)cn3)(C1)C2)[C@H]1C[C@H](O)c2cc(Cl)c(F)cc2O1 [Compound 478, (2R,4S)-6-chloro-7-fluoro-4-hydroxy-N-(3-{4-[5-(trifluoromethyl)pyridin-2-yl]-1H-pyrazol-1-yl}bicyclo[1.1.1]pentan-1-yl)-3,4-dihydro-2H-1-benzopyran-2-carboxamide]
- EC50: < 10 nM

SMILES: O=C(NC12CC(n3cc(C(=S)N4CC[C@H](OC(F)(F)F)C4)cn3)(C1)C2)[C@H]1C[C@@H](O)c2cc(Cl)ccc2O1 [Compound 390, (2R,4R)-6-chloro-4-hydroxy-N-(3-{4-[(3S)-3-(trifluoromethoxy)pyrrolidine-1-carbothioyl]-1H-pyrazol-1-yl}bicyclo[1.1.1]pentan-1-yl)-3,4-dihydro-2H-1-benzopyran-2-carboxamide]
- EC50: < 10 nM

SMILES: O=C(NC12CC(n3cc(NCCOC(F)(F)F)cn3)(C1)C2)[C@H]1C[C@@H](O)c2cc(Cl)ccc2O1 [Compound 437, (2R,4R)-6-chloro-4-hydroxy-N-[3-(4-{[2-(trifluoromethoxy)ethyl]amino}-1H-pyrazol-1-yl)bicyclo[1.1.1]pentan-1-yl]-3,4-dihydro-2H-1-benzopyran-2-carboxamide]
- EC50: 10 to 50 nM
